Values of other authors as cited in patent EP2090292A1, “Means and methods for controlling commensales” (B.R.A.I.N. Biotechnology Research and Information Network AG, priority 2008, dated 2009).
Entries after “also recorded” stand apart in the source; their conditions may differ.

Tested on: Gram-positive and Gram-negative bacteria
Details: prior art, Torres et al. (1998); biofilm not assayed

CC1OC(=O)C(C2OC2C)=CC1O (stereo not shown) [aspyrone, 6-Dihydro-5-hydroxy-6-methyl-3-(3-methyloxiranyl)-2H-pyran-2-one]
inhibitory activity against Gram-positive and Gram-negative bacteria: weak inhibitory activity; also recorded: weak to negligible activity
